# Molecular target: c-KIT (Homo sapiens, UniProt P10721)
# Assay: microscale thermophoresis (MST), […] target
# Format: binding
# c-KIT, sequence (P10721 26-976): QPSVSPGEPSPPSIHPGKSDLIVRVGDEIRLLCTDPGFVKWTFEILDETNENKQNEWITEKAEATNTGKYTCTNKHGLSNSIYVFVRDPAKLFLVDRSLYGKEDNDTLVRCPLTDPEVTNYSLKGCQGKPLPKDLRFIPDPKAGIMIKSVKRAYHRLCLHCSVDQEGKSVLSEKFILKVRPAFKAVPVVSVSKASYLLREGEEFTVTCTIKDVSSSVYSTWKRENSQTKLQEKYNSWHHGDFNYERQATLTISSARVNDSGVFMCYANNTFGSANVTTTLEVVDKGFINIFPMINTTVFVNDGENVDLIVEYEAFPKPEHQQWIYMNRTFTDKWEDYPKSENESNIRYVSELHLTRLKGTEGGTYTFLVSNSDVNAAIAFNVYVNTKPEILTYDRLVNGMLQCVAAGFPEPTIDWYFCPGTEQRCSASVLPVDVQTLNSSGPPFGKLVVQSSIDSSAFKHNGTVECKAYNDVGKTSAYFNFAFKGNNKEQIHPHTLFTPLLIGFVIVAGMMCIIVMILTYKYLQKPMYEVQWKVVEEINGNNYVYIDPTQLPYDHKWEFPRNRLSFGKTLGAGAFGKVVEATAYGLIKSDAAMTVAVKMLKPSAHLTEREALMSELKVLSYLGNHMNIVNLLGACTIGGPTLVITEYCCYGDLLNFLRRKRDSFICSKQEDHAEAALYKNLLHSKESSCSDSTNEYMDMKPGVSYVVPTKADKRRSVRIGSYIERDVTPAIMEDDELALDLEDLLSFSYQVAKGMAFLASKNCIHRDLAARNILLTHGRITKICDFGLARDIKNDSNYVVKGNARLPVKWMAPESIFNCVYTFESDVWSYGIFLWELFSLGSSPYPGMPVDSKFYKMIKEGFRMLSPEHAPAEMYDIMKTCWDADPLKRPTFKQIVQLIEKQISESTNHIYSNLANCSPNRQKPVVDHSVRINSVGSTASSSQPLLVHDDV
structure (smiles),measurement,value
O=c1cc(-c2ccc(O)cc2)oc2cc(O)cc(O)c12 [Apigenin],Kd,2600 nM
